# Test results taken from article PMC11790914, “Chemogenomics for steroid hormone receptors (NR3)” (Communications Chemistry, 2025).
# “And” between values parts separate entries of the source, which are not always exact repeats. Identical values can stand only once.
# Tests used:
# ABL1 = target: T1, ABL1 (Homo sapiens, UniProt P00519); assay: Liability panel screening by DSF: ABL1; format: binding; settings: DSF, 20 µM, n=2; for ΔTm at 20 µM: read-out: Mean ΔTM ABL1
# T1 construct: made in house
# T1 sequence (P00519 whole entry, species assumed): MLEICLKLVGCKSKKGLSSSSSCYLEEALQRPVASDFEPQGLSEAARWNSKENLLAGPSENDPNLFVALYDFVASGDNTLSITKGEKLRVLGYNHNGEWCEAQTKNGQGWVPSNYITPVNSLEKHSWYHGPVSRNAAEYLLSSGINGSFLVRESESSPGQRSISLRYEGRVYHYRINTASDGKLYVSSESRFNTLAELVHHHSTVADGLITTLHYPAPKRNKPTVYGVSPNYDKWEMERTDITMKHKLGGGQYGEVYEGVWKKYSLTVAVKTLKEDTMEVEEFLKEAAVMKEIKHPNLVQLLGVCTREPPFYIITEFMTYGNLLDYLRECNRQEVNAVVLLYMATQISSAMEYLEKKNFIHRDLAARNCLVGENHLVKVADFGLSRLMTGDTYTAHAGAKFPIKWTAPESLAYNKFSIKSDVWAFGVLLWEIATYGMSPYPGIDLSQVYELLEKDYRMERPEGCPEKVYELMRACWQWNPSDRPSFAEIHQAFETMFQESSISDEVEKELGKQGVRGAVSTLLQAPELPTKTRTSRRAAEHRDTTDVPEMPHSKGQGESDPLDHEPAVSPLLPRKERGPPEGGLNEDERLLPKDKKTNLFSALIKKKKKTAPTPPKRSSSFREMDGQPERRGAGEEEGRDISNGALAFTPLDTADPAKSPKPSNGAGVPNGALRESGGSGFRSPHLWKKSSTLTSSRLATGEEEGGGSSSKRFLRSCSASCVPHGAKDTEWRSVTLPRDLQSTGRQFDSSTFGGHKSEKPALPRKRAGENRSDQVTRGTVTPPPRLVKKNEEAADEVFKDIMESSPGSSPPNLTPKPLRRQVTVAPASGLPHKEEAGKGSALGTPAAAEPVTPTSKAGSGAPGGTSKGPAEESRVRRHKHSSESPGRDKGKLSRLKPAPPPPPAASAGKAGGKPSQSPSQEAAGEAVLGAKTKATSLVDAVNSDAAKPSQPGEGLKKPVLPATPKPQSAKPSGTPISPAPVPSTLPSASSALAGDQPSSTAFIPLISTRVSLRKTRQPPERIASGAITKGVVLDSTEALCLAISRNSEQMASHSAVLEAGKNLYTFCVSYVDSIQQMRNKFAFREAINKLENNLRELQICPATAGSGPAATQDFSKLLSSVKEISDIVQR
# Method in brief: (§1)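 Thermal shift: in-house recombinant protein at 2 µM in 10 mM HEPES pH 7.5 with 500 mM NaCl, SYPRO Orange 1:1000, heated at 3 °C/min to 85 °C in technical duplicates. Tm is the Boltzmann inflection point, reported as ∆Tm in K.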
# AURKA = target: T2, AURKA (Homo sapiens, UniProt O14965); assay: Liability panel screening by DSF: AURKA; format: binding; settings: DSF, 20 µM, n=2; for ΔTm at 20 µM: read-out: Mean ΔTM AURKA
# T2 construct: made in house
# T2 sequence (O14965 1-403): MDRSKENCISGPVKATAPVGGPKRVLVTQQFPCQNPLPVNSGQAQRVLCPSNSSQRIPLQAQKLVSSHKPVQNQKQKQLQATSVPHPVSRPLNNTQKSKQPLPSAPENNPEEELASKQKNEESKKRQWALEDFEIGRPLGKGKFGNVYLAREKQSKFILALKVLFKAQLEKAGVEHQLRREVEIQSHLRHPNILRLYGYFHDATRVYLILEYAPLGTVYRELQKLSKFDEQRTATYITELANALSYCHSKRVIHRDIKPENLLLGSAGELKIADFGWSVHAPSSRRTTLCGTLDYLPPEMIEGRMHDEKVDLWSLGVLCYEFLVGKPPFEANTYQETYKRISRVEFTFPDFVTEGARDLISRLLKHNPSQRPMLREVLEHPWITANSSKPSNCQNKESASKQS
# Method in brief: as §1
# CDK2 = target: T3, CDK2 (Homo sapiens, UniProt P24941); assay: Liability panel screening by DSF: CDK2; format: binding; settings: DSF, 20 µM, n=2; for ΔTm at 20 µM: read-out: Mean ΔTM CDK2
# T3 construct: made in house
# Method in brief: as §1
# FGFR3 = target: T4, FGFR3 (Homo sapiens, UniProt P22607); assay: Liability panel screening by DSF: FGFR3; format: binding; settings: DSF, 20 µM, n=2; for ΔTm at 20 µM: read-out: Mean ΔTM FGFR3
# T4 construct: made in house
# T4 sequence (P22607 23-806, species assumed): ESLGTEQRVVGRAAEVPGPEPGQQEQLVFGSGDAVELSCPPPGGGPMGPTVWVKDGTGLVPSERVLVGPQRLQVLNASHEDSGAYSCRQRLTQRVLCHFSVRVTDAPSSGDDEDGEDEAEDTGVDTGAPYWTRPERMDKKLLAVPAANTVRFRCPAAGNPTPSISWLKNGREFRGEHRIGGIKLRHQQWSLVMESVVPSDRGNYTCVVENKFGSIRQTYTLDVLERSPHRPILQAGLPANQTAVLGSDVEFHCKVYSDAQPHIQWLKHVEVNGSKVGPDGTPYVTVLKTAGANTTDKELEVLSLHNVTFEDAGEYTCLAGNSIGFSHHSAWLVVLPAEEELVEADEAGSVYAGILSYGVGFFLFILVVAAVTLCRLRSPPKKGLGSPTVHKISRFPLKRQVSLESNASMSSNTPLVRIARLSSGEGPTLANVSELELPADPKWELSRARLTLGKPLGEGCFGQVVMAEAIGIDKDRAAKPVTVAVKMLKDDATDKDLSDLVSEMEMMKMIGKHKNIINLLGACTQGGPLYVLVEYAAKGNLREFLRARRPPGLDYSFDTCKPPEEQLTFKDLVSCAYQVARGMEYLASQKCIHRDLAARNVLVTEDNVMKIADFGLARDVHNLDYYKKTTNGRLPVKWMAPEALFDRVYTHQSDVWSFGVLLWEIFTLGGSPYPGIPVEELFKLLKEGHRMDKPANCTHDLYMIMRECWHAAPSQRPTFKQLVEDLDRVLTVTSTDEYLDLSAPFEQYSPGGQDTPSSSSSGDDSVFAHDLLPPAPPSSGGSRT
# Method in brief: as §1
# GSK3B = target: T5, GSK3B (Homo sapiens, UniProt P49841); assay: Liability panel screening by DSF: GSK3B; format: binding; settings: DSF, 20 µM, n=2; for ΔTm at 20 µM: read-out: Mean ΔTM GSK3B
# T5 construct: made in house
# T5 sequence (P49841 whole entry, species assumed): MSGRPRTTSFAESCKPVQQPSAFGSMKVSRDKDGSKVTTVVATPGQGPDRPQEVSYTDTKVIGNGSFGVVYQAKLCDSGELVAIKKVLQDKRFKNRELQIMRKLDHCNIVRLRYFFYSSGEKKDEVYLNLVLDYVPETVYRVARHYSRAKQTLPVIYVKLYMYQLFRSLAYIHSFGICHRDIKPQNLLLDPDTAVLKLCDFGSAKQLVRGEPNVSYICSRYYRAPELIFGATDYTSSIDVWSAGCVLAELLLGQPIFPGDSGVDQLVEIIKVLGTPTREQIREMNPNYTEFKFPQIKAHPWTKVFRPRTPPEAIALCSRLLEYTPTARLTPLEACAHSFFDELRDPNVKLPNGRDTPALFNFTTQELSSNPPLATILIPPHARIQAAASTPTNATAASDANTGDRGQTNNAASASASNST
# BRD4 = target: T6, BRD4 (Homo sapiens, UniProt O60885); assay: Liability panel screening by DSF: BRD4; format: binding; settings: DSF, 20 µM, n=2; for ΔTm at 20 µM: read-out: Mean ΔTM BRD4
# T6 construct: This panel comprised ten highly ligandable kinases and bromodomains; made in house
# Method in brief: as §1
# BRPF1 = target: T7, BRPF1 (Homo sapiens, UniProt P55201); assay: Liability panel screening by DSF: BRPF1; format: binding; settings: DSF, 20 µM, n=2; for ΔTm at 20 µM: read-out: Mean ΔTM BRPF1
# T7 construct: This panel comprised ten highly ligandable kinases and bromodomains; made in house
# T7 sequence (P55201 628-732 limits assumed): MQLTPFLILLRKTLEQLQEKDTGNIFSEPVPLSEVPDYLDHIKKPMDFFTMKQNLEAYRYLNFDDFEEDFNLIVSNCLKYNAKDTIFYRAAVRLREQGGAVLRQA
# Method in brief: as §1
# CSNK1D = target: T8, CSNK1D (Homo sapiens, UniProt P48730); assay: Liability panel screening by DSF: CSNK1D; format: binding; settings: DSF, 20 µM, n=2; for ΔTm at 20 µM: read-out: Mean ΔTM CSNK1D
# T8 construct: made in house
# T8 sequence (P48730 whole entry, species assumed): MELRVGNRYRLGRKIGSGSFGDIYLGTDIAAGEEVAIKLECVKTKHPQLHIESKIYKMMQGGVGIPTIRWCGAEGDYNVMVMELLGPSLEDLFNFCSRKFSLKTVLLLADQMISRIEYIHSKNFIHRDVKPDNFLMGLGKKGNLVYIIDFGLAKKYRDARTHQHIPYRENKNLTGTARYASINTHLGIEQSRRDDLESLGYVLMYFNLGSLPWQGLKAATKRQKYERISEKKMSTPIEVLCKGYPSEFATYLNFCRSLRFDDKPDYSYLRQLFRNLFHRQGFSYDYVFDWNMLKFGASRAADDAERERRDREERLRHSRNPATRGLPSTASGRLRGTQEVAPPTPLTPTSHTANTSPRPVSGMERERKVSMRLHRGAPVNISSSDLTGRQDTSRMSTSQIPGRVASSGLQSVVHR
# Method in brief: as §1
# MAPK1 = target: T9, MAPK1 (Homo sapiens, UniProt P28482); assay: Liability panel screening by DSF: MAPK1; format: binding; settings: DSF, 20 µM, n=2; for ΔTm at 20 µM: read-out: Mean ΔTM MAPK1
# T9 construct: made in house
# T9 sequence (P28482 whole entry, species assumed): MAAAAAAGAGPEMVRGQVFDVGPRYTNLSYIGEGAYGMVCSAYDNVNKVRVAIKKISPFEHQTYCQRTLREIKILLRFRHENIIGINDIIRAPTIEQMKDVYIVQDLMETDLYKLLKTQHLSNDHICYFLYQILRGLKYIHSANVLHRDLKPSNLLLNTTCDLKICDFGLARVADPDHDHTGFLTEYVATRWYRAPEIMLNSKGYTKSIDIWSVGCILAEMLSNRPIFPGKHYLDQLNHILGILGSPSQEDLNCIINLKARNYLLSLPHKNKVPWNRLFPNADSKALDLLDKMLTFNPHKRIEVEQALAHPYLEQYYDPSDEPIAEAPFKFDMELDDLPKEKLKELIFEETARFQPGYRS
# Method in brief: as §1
# TRIM24 = target: T10, TRIM24 (Homo sapiens, UniProt O15164); assay: Liability panel screening by DSF: TRIM24; format: binding; settings: DSF, 20 µM, n=2; for ΔTm at 20 µM: read-out: Mean ΔTM TRIM24
# T10 construct: This panel comprised ten highly ligandable kinases and bromodomains; made in house
# T10 sequence (O15164 899-1004 limits assumed): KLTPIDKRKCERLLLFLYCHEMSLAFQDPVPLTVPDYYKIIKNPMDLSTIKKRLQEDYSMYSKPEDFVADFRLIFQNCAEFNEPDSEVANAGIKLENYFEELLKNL
# Method in brief: as §1
# HEK293T cells [1] = assay: Cytotoxicity: metabolic activity (WST-8 / CCK-8 assay); settings: single replicates
# HEK293T cells [2] = assay: Cytotoxicity: apoptosis induction (caspase-3/7 DEVD fluorogenic DNA dye); settings: for Apoptosis induction [AI]: single replicates
# HEK293T cells [3] = assay: Cytotoxicity: necrosis induction (red fluorescent dye for permeable plasma membranes); format: cell-based; settings: 24 h, necrotic cell count normalized to 0.1% DMSO, single replicates;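 note: compounds applied in DMEM high glucose with 0.1% FCS and 0.1% DMSO, necrotic HEK293T cells counted by red staining of cells whose plasma membranes had become permeable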
# [4] = tested on: NF-κB activity in HEK293 NF-κB reporter cells; assay: NF-kB activity assay (GFP reporter, ionomycin/PMA); format: cell-based; settings: n=3
# Method in brief: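 HEK293 NF-κB GFP reporter cells given compound in 0.1% DMSO for 4 h, then stimulated with ionomycin 100 ng/mL plus PMA 10 ng/mL. Imaged every 90 min over 24 h; GFP-positive cell count normalized to confluence, three independent biological replicates.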
smiles,measurement,setting,value
COc1ccc(-c2coc3cc(O)cc(O)c3c2=O)cc1 [Biochanin A],Mean ΔTM ABL1,ABL1,1.61 K
same,Mean ΔTM AURKA,AURKA,1.95 K
same,Mean ΔTM CDK2,CDK2,1.69 K
same,Mean ΔTM FGFR3,FGFR3,1.13 K
same,Mean ΔTM GSK3B,GSK3B,-0.89 K
same,Mean ΔTM BRD4,BRD4,0.32 K
same,Mean ΔTM BRPF1,BRPF1,2.98 K
same,Mean ΔTM CSNK1D,CSNK1D,-0.77 K
same,Mean ΔTM MAPK1,MAPK1,0.55 K
same,Mean ΔTM TRIM24,TRIM24,2.59 K
same,Metabolic activity [MA],"HEK293T cells [1]; 10 µM, DMSO 0.1% = 1.00",0.87 and 0.81 and 1.01 and 0.90 and 1.15 and 0.98
same,Apoptosis induction [AI],"HEK293T cells [2]; 10 µM, DMSO 0.1% = 1.00",0.76 and 0.84
CCCC1O[C@@H]2C[C@H]3[C@@H]4CCC5=CC(=O)C=C[C@]5(C)[C@H]4[C@@H](O)C[C@]3(C)[C@]2(C(=O)CO)O1 (some centres unmarked) [Budesonide],ΔTm at 20 µM,ABL1,0.48 °C
same,ΔTm at 20 µM,AURKA,-0.16 °C
same,ΔTm at 20 µM,CDK2,0.00668 °C
same,ΔTm at 20 µM,FGFR3,-0.77 °C
same,ΔTm at 20 µM,GSK3B,-0.4 °C
same,ΔTm at 20 µM,BRD4,-1.67 °C
same,ΔTm at 20 µM,BRPF1,-1.04 °C
same,ΔTm at 20 µM,CSNK1D,-0.0262 °C
same,ΔTm at 20 µM,MAPK1,-0.27 °C
same,ΔTm at 20 µM,TRIM24,-0.81 °C
same,Metabolic activity [MA],"HEK293T cells [1]; 0.3 µM, DMSO 0.1% = 1.00",1.02 and 0.97 and 1.07 and 0.99 and 1.12 and 1.03
same,Metabolic activity [MA],"HEK293T cells [1]; 3 µM, DMSO 0.1% = 1.00",0.86 and 0.88 and 1.03 (2×) and 1.13 and 0.99
same,Apoptosis induction [AI],"HEK293T cells [2]; 0.3 µM, DMSO 0.1% = 1.00",1.00 and 1.74
same,Apoptosis induction [AI],"HEK293T cells [2]; 3 µM, DMSO 0.1% = 1.00",1.77 and 1.74
same,apoptosis induction,"HEK293T cells [2]; HEK293T, 24 h, budesonide (3 µM), others at tested concentration",slight apoptosis induction
CC/C(=C(/CC)c1ccc(O)cc1)c1ccc(O)cc1 [Diethylstilbestrol],Necrosis induction [NI],HEK293T cells [3]; 0.3 µM,0.86 and 0.98 and 1.34
same,Necrosis induction [NI],HEK293T cells [3]; 3 µM,0.69 and 0.58 and 0.64 and 0.72
same,ΔTm at 20 µM,ABL1,-0.96 °C
same,ΔTm at 20 µM,AURKA,-1.78 °C
same,ΔTm at 20 µM,CDK2,-5.57 °C
same,ΔTm at 20 µM,FGFR3,-8.29 °C
same,ΔTm at 20 µM,GSK3B,-3.54 °C
same,ΔTm at 20 µM,BRD4,-4.78 °C
same,ΔTm at 20 µM,BRPF1,-8.49 °C
same,ΔTm at 20 µM,CSNK1D,-0.81 °C
same,ΔTm at 20 µM,MAPK1,-12.2 °C
same,ΔTm at 20 µM,TRIM24,1.49 °C
same,Mean NFκB response,"[4]; 0.3 µM, 1,5 h",2313.08 GFP+-cells/confluence ∙ 1000
same,Mean NFκB response,"[4]; 0.3 µM, 4,5 h",2949.70 GFP+-cells/confluence ∙ 1000
same,Mean NFκB response,"[4]; 0.3 µM, 7,5 h",7538.46 GFP+-cells/confluence ∙ 1000
same,Mean NFκB response,"[4]; 0.3 µM, 10,5 h",18701.55 GFP+-cells/confluence ∙ 1000
same,Mean NFκB response,"[4]; 0.3 µM, 13,5 h",27206.00 GFP+-cells/confluence ∙ 1000
same,Mean NFκB response,"[4]; 0.3 µM, 16,6 h",33288.00 GFP+-cells/confluence ∙ 1000
same,Mean NFκB response,"[4]; 0.3 µM, 19,5 h",37133.33 GFP+-cells/confluence ∙ 1000
same,Mean NFκB response,"[4]; 0.3 µM, 22,5 h",40576.67 GFP+-cells/confluence ∙ 1000
same,Mean NFκB response,"[4]; 0.3 µM, 3 h",2350.33 GFP+-cells/confluence ∙ 1000
same,Mean NFκB response,"[4]; 0.3 µM, 6 h",4223.97 GFP+-cells/confluence ∙ 1000
same,Mean NFκB response,"[4]; 0.3 µM, 9 h",13522.53 GFP+-cells/confluence ∙ 1000
same,Mean NFκB response,"[4]; 0.3 µM, 12 h",23340.33 GFP+-cells/confluence ∙ 1000
same,Mean NFκB response,"[4]; 0.3 µM, 15 h",30431.00 GFP+-cells/confluence ∙ 1000
same,Mean NFκB response,"[4]; 0.3 µM, 18 h",35400.00 GFP+-cells/confluence ∙ 1000
same,Mean NFκB response,"[4]; 0.3 µM, 21 h",39313.33 GFP+-cells/confluence ∙ 1000
same,Mean NFκB response,"[4]; 0.3 µM, 24 h",41536.67 GFP+-cells/confluence ∙ 1000
same,Mean NFκB response,"[4]; 3 µM, 1,5 h",2624.20 GFP+-cells/confluence ∙ 1000
same,Mean NFκB response,"[4]; 3 µM, 4,5 h",2942.05 GFP+-cells/confluence ∙ 1000
same,Mean NFκB response,"[4]; 3 µM, 7,5 h",5380.00 GFP+-cells/confluence ∙ 1000
same,Mean NFκB response,"[4]; 3 µM, 10,5 h",14690.00 GFP+-cells/confluence ∙ 1000
same,Mean NFκB response,"[4]; 3 µM, 13,5 h",22563.33 GFP+-cells/confluence ∙ 1000
same,Mean NFκB response,"[4]; 3 µM, 16,6 h",28276.67 GFP+-cells/confluence ∙ 1000
same,Mean NFκB response,"[4]; 3 µM, 19,5 h",33253.33 GFP+-cells/confluence ∙ 1000
same,Mean NFκB response,"[4]; 3 µM, 22,5 h",36776.67 GFP+-cells/confluence ∙ 1000
same,Mean NFκB response,"[4]; 3 µM, 3 h",2684.18 GFP+-cells/confluence ∙ 1000
same,Mean NFκB response,"[4]; 3 µM, 6 h",3410.00 GFP+-cells/confluence ∙ 1000
same,Mean NFκB response,"[4]; 3 µM, 9 h",9373.33 GFP+-cells/confluence ∙ 1000
same,Mean NFκB response,"[4]; 3 µM, 12 h",19050.00 GFP+-cells/confluence ∙ 1000
same,Mean NFκB response,"[4]; 3 µM, 15 h",25776.67 GFP+-cells/confluence ∙ 1000
same,Mean NFκB response,"[4]; 3 µM, 18 h",30966.67 GFP+-cells/confluence ∙ 1000
same,Mean NFκB response,"[4]; 3 µM, 21 h",34670.00 GFP+-cells/confluence ∙ 1000
same,Mean NFκB response,"[4]; 3 µM, 24 h",38090.00 GFP+-cells/confluence ∙ 1000
same,Metabolic activity [MA],"HEK293T cells [1]; 0.3 µM, HEK293T, 24 h, WST-8, normalized to 0.1% DMSO",1.04 (3×) and 0.90 and 0.95 and 1.03 and 0.96 and 1.14
same,Metabolic activity [MA],"HEK293T cells [1]; 3 µM, HEK293T, 24 h, WST-8, normalized to 0.1% DMSO",0.90 and 0.94 and 1.10 and 1.00 (2×) and 0.60 and 0.78
same,Apoptosis induction [AI],"HEK293T cells [2]; 0.3 µM, HEK293T, 24 h, apoptotic cell count normalized to 0.1% DMSO",0.86 and 1.37 (2×) and 0.83 and 1.54 and 0.77
same,Apoptosis induction [AI],"HEK293T cells [2]; 3 µM, HEK293T, 24 h, apoptotic cell count normalized to 0.1% DMSO",0.65 and 0.97 and 0.69 and 0.85 and 1.67 and 1.65
C/C=C1\C(=O)C[C@H]2[C@@H]3CCC4=CC(=O)CC[C@]4(C)[C@H]3CC[C@]12C [Z-Guggulsterone],Mean ΔTM ABL1,ABL1,0.07 K
same,Mean ΔTM AURKA,AURKA,-1.78 K
same,Mean ΔTM CDK2,CDK2,-0.30 K
same,Mean ΔTM GSK3B,GSK3B,-1.05 K
same,Mean ΔTM BRD4,BRD4,-2.62 K
same,Mean ΔTM BRPF1,BRPF1,-1.36 K
same,Mean ΔTM CSNK1D,CSNK1D,0.63 K
same,Mean ΔTM MAPK1,MAPK1,0.47 K
same,Mean ΔTM TRIM24,TRIM24,-2.32 K
same,Metabolic activity [MA],"HEK293T cells [1]; 3 µM, DMSO 0.1% = 1.00",1.00 and 0.94 and 1.08 and 1.06 and 1.18 and 1.15
same,Apoptosis induction [AI],"HEK293T cells [2]; 3 µM, DMSO 0.1% = 1.00",0.63 and 1.35
